Laboratory results published in patent US6613718B2, “Aryl ether derivatives and processes for their preparation and herbicidal and desiccant compositions containing them” (Ishihara Sangyo Kaisha, Ltd., priority 2001, dated 2003).

What was measured:
Type in all cases: in vivo
Conditions in all cases: 14 days after application
[1] = system: common ragweed (Ambrosia artemisiifolia L., AMBEL); experiment: Pre-emerge greenhouse herbicide activity screening, phytotoxicity rating
Method in brief: (§1)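 Pre-emerge: seeds sown 1 day before spray; acetone solutions, 15–1000 g ai/ha, track sprayer; soil watered after application, then bottom-watered. Post-emerge: plants at 2-3 leaf stage (sown 8-21 days prior), 0.25% v/v non-ionic surfactant added, bottom-watered only. Rated 0-100 at 14 DAA.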

[2] = system: redroot pigweed (Amaranthus retroflexus, AMARE); experiment: as above
Method in brief: as §1

[3] = system: large crabgrass (Digitaria sanguinalis, DIGSA); experiment: as above
Method in brief: as §1

[4] = system: green foxtail (Setaria viridis, SETVI); experiment: as above
Method in brief: as §1

[5] = system: lambsquarters (Chenopodium album, CHEAL); experiment: as above
Method in brief: as §1

[6] = system: sicklepod (Cassia obtusifolia, CASOB); experiment: as above
Method in brief: as §1

[7] = system: ivyleaf morningglory (Ipomoea hederacea, IPOHE); experiment: as above
Method in brief: as §1

[8] = system: barnyardgrass (Echinochloa crus-galli, ECHCG); experiment: as above
Method in brief: as §1

[9] = system: johnsongrass (Sorghum halepense, SORHA); experiment: as above
Method in brief: as §1

[10] = system: velvetleaf (Abutilon theophrasti, ABUTH); experiment: as above
Method in brief: as §1

[11] = system: upland rice (Oryza sp., var.Tebonnet, RICE); experiment: Pre-emerge greenhouse screening, crop safety (phytotoxicity rating)
Method in brief: as §1

[12] = system: soybean (Glycine max L., var. Pella 86, SOY); experiment: as above
Method in brief: as §1

[13] = system: field corn (Zea mays L., var. Dekalb 535, CORN); experiment: as above
Method in brief: as §1

[14] = system: field corn (Zea mays L., var. Dekalb 535, CORN); experiment: Post-emerge greenhouse screening, crop safety / corn selectivity (phytotoxicity rating)
Method in brief: as §1

[15] = system: common ragweed (Ambrosia artemisiifolia L., AMBEL); experiment: Post-emerge greenhouse herbicide activity screening, phytotoxicity rating
Method in brief: as §1

[16] = system: redroot pigweed (Amaranthus retroflexus, AMARE); experiment: as above
Method in brief: as §1

[17] = system: large crabgrass (Digitaria sanguinalis, DIGSA); experiment: as above
Method in brief: as §1

[18] = system: green foxtail (Setaria viridis, SETVI); experiment: as above
Method in brief: as §1

[19] = system: lambsquarters (Chenopodium album, CHEAL); experiment: as above
Method in brief: as §1

[20] = system: sicklepod (Cassia obtusifolia, CASOB); experiment: as above
Method in brief: as §1

[21] = system: ivyleaf morningglory (Ipomoea hederacea, IPOHE); experiment: as above
Method in brief: as §1

[22] = system: barnyardgrass (Echinochloa crus-galli, ECHCG); experiment: as above
Method in brief: as §1

[23] = system: johnsongrass (Sorghum halepense, SORHA); experiment: as above
Method in brief: as §1

[24] = system: velvetleaf (Abutilon theophrasti, ABUTH); experiment: as above
Method in brief: as §1

[25] = system: upland rice (Oryza sp., var.Tebonnet, RICE); experiment: Post-emerge greenhouse screening, crop safety (phytotoxicity rating)
Method in brief: as §1

[26] = system: soybean (Glycine max L., var. Pella 86, SOY); experiment: as above
Method in brief: as §1

## Fc1cc(Cl)c(Oc2ncccn2)cc1-c1nn2c(c1Cl)CCCC2 [Compound 6-1, 3-Chloro-2-[4-chloro-2-fluoro-5-(2-pyrimidinyloxy)phenyl]-4,5,6,7-tetrahydro-pyrazolo[1,5-a]pyridine]
[1]; 125 g ai/ha
  AMBEL phytotoxicity rating (0-100 scale): 100
[1]; 250 g ai/ha
  AMBEL phytotoxicity rating (0-100 scale): 100
[2]; 125 g ai/ha
  AMARE phytotoxicity rating (0-100 scale): 100
[2]; 250 g ai/ha
  AMARE phytotoxicity rating (0-100 scale): 100
[3]; 125 g ai/ha
  DIGSA phytotoxicity rating (0-100 scale): 100
[3]; 250 g ai/ha
  DIGSA phytotoxicity rating (0-100 scale): 100
[4]; 125 g ai/ha
  SETVI phytotoxicity rating (0-100 scale): 100
[4]; 250 g ai/ha
  SETVI phytotoxicity rating (0-100 scale): 100
[5]; 125 g ai/ha
  CHEAL phytotoxicity rating (0-100 scale): 100
[5]; 250 g ai/ha
  CHEAL phytotoxicity rating (0-100 scale): 100
[6]; 125 g ai/ha
  CASOB phytotoxicity rating (0-100 scale): 100
[6]; 250 g ai/ha
  CASOB phytotoxicity rating (0-100 scale): 100
[7]; 125 g ai/ha
  IPOHE phytotoxicity rating (0-100 scale): 99
[7]; 250 g ai/ha
  IPOHE phytotoxicity rating (0-100 scale): 100
[8]; 125 g ai/ha
  ECHCG phytotoxicity rating (0-100 scale): 99
[8]; 250 g ai/ha
  ECHCG phytotoxicity rating (0-100 scale): 100
[9]; 125 g ai/ha
  SORHA phytotoxicity rating (0-100 scale): 100
[9]; 250 g ai/ha
  SORHA phytotoxicity rating (0-100 scale): 100
[10]; 125 g ai/ha
  ABUTH phytotoxicity rating (0-100 scale): 100
[10]; 250 g ai/ha
  ABUTH phytotoxicity rating (0-100 scale): 100
[11]; 125 g ai/ha
  RICE crop damage, phytotoxicity rating (0-100 scale): 85
[11]; 250 g ai/ha
  RICE crop damage, phytotoxicity rating (0-100 scale): 95
[12]; 125 g ai/ha
  SOY crop damage, phytotoxicity rating (0-100 scale): 25
[12]; 250 g ai/ha
  SOY crop damage, phytotoxicity rating (0-100 scale): 60
[13]; 125 g ai/ha
  CORN crop damage, phytotoxicity rating (0-100 scale): 40
[13]; 250 g ai/ha
  CORN crop damage, phytotoxicity rating (0-100 scale): 50
[14]; 125 g ai/ha
  CORN crop damage, phytotoxicity rating (0-100 scale): 10
[14]; 250 g ai/ha
  CORN crop damage, phytotoxicity rating (0-100 scale): 20
[15]; 125 g ai/ha
  AMBEL phytotoxicity rating (0-100 scale): 85
[15]; 250 g ai/ha
  AMBEL phytotoxicity rating (0-100 scale): 90
[16]; 125 g ai/ha
  AMARE phytotoxicity rating (0-100 scale): 100
[16]; 250 g ai/ha
  AMARE phytotoxicity rating (0-100 scale): 100
[17]; 125 g ai/ha
  DIGSA phytotoxicity rating (0-100 scale): 90
[17]; 250 g ai/ha
  DIGSA phytotoxicity rating (0-100 scale): 98
[18]; 125 g ai/ha
  SETVI phytotoxicity rating (0-100 scale): 100
[18]; 250 g ai/ha
  SETVI phytotoxicity rating (0-100 scale): 100
[19]; 125 g ai/ha
  CHEAL phytotoxicity rating (0-100 scale): 100
[19]; 250 g ai/ha
  CHEAL phytotoxicity rating (0-100 scale): 100
[20]; 125 g ai/ha
  CASOB phytotoxicity rating (0-100 scale): 100
[20]; 250 g ai/ha
  CASOB phytotoxicity rating (0-100 scale): 100
[21]; 125 g ai/ha
  IPOHE phytotoxicity rating (0-100 scale): 100
[21]; 250 g ai/ha
  IPOHE phytotoxicity rating (0-100 scale): 100
[22]; 125 g ai/ha
  ECHCG phytotoxicity rating (0-100 scale): 90
[22]; 250 g ai/ha
  ECHCG phytotoxicity rating (0-100 scale): 100
[23]; 125 g ai/ha
  SORHA phytotoxicity rating (0-100 scale): 75
[23]; 250 g ai/ha
  SORHA phytotoxicity rating (0-100 scale): 95
[24]; 125 g ai/ha
  ABUTH phytotoxicity rating (0-100 scale): 100
[24]; 250 g ai/ha
  ABUTH phytotoxicity rating (0-100 scale): 100
[25]; 125 g ai/ha
  RICE crop damage, phytotoxicity rating (0-100 scale): 90
[25]; 250 g ai/ha
  RICE crop damage, phytotoxicity rating (0-100 scale): 95
[26]; 125 g ai/ha
  SOY crop damage, phytotoxicity rating (0-100 scale): 95
[26]; 250 g ai/ha
  SOY crop damage, phytotoxicity rating (0-100 scale): 100
